Test results reported in PubChem BioAssay AID2060886 (Molecular Pharmacology Branch, DTP, NCI, 2025).

System: 653999-131-R-J2-PDC complex spheroids, growth inhibition
Test: Anticancer human tumor 653999-131-R-J2-PDC patient-derived lung adenocarcinoma cell line growth inhibition [RAS]
Conditions: for IC50: curve of first compound; for viability, T/C: stronger effect = lower value
How it was run: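 Agents were tested in combination matrices in half-log decrements from a top concentration at or near clinical Cmax (10 microM if undetermined). Targets were multi-cell spheroids of tumour lines plus HUVEC and MSC stromal cells.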
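Note: spheroids exposed to the agents for seven days before the readout.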

With C=CC(=O)N1CCN(c2nc(OCC3CCCN3C)nc3c(F)c(-c4nc(N)cc(C)c4C(F)(F)F)c(Cl)cc23)C(C)C1 (centres undefined) + CCn1c(-c2cccnc2C(C)OC)c2c3cc(ccc31)N1CCOC(CC(NC(=O)C(C(C)C)N(C)C(=O)C3(F)CCN(C(=O)C#CC(C)(C)N(C)C)CC3)C(=O)N3CCCC(N3)C(=O)OCC(C)(C)C2)C1 the IC50 (second compound 0.000949 µM) was > 1000 nM, the IC50 (second compound 0.003 µM) was > 1000 nM and the IC50 (second compound 0.00949 µM) was > 1000 nM. For the same molecule, the IC50 (second compound 0.03 µM) was > 1000 nM, the IC50 (second compound 0.0949 µM) was > 1000 nM and the IC50 (second compound 0.3 µM) was > 1000 nM. For the same molecule, the viability, T/C (second compound 0.000949 µM, first compound 0.00316 µM) was 94.1%, the viability, T/C (second compound 0.000949 µM, first compound 0.01 µM) was 103% and the viability, T/C (second compound 0.000949 µM, first compound 0.0316 µM) was 101%. For the same molecule, the viability, T/C (second compound 0.000949 µM, first compound 0.1 µM) was 98.3%, the viability, T/C (second compound 0.000949 µM, first compound 0.316 µM) was 103% and the viability, T/C (second compound 0.000949 µM, first compound 1 µM) was 91.5%. It also gave a viability, T/C (second compound 0.003 µM, first compound 0.00316 µM) of 113%, a viability, T/C (second compound 0.003 µM, first compound 0.01 µM) of 101% and a viability, T/C (second compound 0.003 µM, first compound 0.0316 µM) of 102%. It also gave a viability, T/C (second compound 0.003 µM, first compound 0.1 µM) of 98.9%, a viability, T/C (second compound 0.003 µM, first compound 0.316 µM) of 99.8% and a viability, T/C (second compound 0.003 µM, first compound 1 µM) of 104%. It also gave a viability, T/C (second compound 0.00949 µM, first compound 0.00316 µM) of 93.2%, a viability, T/C (second compound 0.00949 µM, first compound 0.01 µM) of 104% and a viability, T/C (second compound 0.00949 µM, first compound 0.0316 µM) of 102%. For the same molecule, the viability, T/C (second compound 0.00949 µM, first compound 0.1 µM) was 96.9%, the viability, T/C (second compound 0.00949 µM, first compound 0.316 µM) was 109% and the viability, T/C (second compound 0.00949 µM, first compound 1 µM) was 106%. For the same molecule, the viability, T/C (second compound 0.03 µM, first compound 0.00316 µM) was 102%, the viability, T/C (second compound 0.03 µM, first compound 0.01 µM) was 99.2% and the viability, T/C (second compound 0.03 µM, first compound 0.0316 µM) was 104%. It also gave a viability, T/C (second compound 0.03 µM, first compound 0.1 µM) of 91.6%, a viability, T/C (second compound 0.03 µM, first compound 0.316 µM) of 114% and a viability, T/C (second compound 0.03 µM, first compound 1 µM) of 101%. For the same molecule, the viability, T/C (second compound 0.0949 µM, first compound 0.00316 µM) was 84.2%, the viability, T/C (second compound 0.0949 µM, first compound 0.01 µM) was 107% and the viability, T/C (second compound 0.0949 µM, first compound 0.0316 µM) was 112%. The viability, T/C (second compound 0.0949 µM, first compound 0.1 µM) was 107%, the viability, T/C (second compound 0.0949 µM, first compound 0.316 µM) was 108% and the viability, T/C (second compound 0.0949 µM, first compound 1 µM) was 102%. The viability, T/C (second compound 0.3 µM, first compound 0.00316 µM) was 103%, the viability, T/C (second compound 0.3 µM, first compound 0.01 µM) was 98.9% and the viability, T/C (second compound 0.3 µM, first compound 0.0316 µM) was 111%. For the same molecule, the viability, T/C (second compound 0.3 µM, first compound 0.1 µM) was 108%, the viability, T/C (second compound 0.3 µM, first compound 0.316 µM) was 104% and the viability, T/C (second compound 0.3 µM, first compound 1 µM) was 96.8%.
CC1(C)CCC(Nc2ncc(C(F)(F)F)c(-c3c[nH]c4c(P(C)(C)=O)c(C#N)ccc34)n2)CN1 (centres undefined) + CCn1c(-c2cccnc2C(C)OC)c2c3cc(ccc31)N1CCOC(CC(NC(=O)C(C(C)C)N(C)C(=O)C3(F)CCN(C(=O)C#CC(C)(C)N(C)C)CC3)C(=O)N3CCCC(N3)C(=O)OCC(C)(C)C2)C1 was tested, and the IC50 (second compound 0.000949 µM) was > 300 nM, the IC50 (second compound 0.003 µM) was > 300 nM and the IC50 (second compound 0.00949 µM) was > 300 nM. The IC50 (second compound 0.03 µM) was > 300 nM, the IC50 (second compound 0.0949 µM) was > 300 nM and the IC50 (second compound 0.3 µM) was > 300 nM. The viability, T/C (second compound 0.000949 µM, first compound 0.000949 µM) was 89.4%, the viability, T/C (second compound 0.000949 µM, first compound 0.003 µM) was 82.6% and the viability, T/C (second compound 0.000949 µM, first compound 0.00949 µM) was 81.1%. For the same molecule, the viability, T/C (second compound 0.000949 µM, first compound 0.03 µM) was 79.7%, the viability, T/C (second compound 0.000949 µM, first compound 0.0949 µM) was 84.6% and the viability, T/C (second compound 0.000949 µM, first compound 0.3 µM) was 71.6%. For the same molecule, the viability, T/C (second compound 0.003 µM, first compound 0.000949 µM) was 96%, the viability, T/C (second compound 0.003 µM, first compound 0.003 µM) was 84.2% and the viability, T/C (second compound 0.003 µM, first compound 0.00949 µM) was 79.5%. It also gave a viability, T/C (second compound 0.003 µM, first compound 0.03 µM) of 77.7%, a viability, T/C (second compound 0.003 µM, first compound 0.0949 µM) of 84.9% and a viability, T/C (second compound 0.003 µM, first compound 0.3 µM) of 71.2%. For the same molecule, the viability, T/C (second compound 0.00949 µM, first compound 0.000949 µM) was 99.5%, the viability, T/C (second compound 0.00949 µM, first compound 0.003 µM) was 89.3% and the viability, T/C (second compound 0.00949 µM, first compound 0.00949 µM) was 84.9%. The viability, T/C (second compound 0.00949 µM, first compound 0.03 µM) was 72%, the viability, T/C (second compound 0.00949 µM, first compound 0.0949 µM) was 79.3% and the viability, T/C (second compound 0.00949 µM, first compound 0.3 µM) was 87.2%. It also gave a viability, T/C (second compound 0.03 µM, first compound 0.000949 µM) of 85.4%, a viability, T/C (second compound 0.03 µM, first compound 0.003 µM) of 83.9% and a viability, T/C (second compound 0.03 µM, first compound 0.00949 µM) of 71%. For the same molecule, the viability, T/C (second compound 0.03 µM, first compound 0.03 µM) was 74.1%, the viability, T/C (second compound 0.03 µM, first compound 0.0949 µM) was 77.4% and the viability, T/C (second compound 0.03 µM, first compound 0.3 µM) was 76.9%. For the same molecule, the viability, T/C (second compound 0.0949 µM, first compound 0.000949 µM) was 80.4%, the viability, T/C (second compound 0.0949 µM, first compound 0.003 µM) was 66.8% and the viability, T/C (second compound 0.0949 µM, first compound 0.00949 µM) was 67.5%. It also gave a viability, T/C (second compound 0.0949 µM, first compound 0.03 µM) of 68%, a viability, T/C (second compound 0.0949 µM, first compound 0.0949 µM) of 74% and a viability, T/C (second compound 0.0949 µM, first compound 0.3 µM) of 70.3%. It also gave a viability, T/C (second compound 0.3 µM, first compound 0.000949 µM) of 82.3%, a viability, T/C (second compound 0.3 µM, first compound 0.003 µM) of 71.7% and a viability, T/C (second compound 0.3 µM, first compound 0.00949 µM) of 63.8%. For the same molecule, the viability, T/C (second compound 0.3 µM, first compound 0.03 µM) was 63.9%, the viability, T/C (second compound 0.3 µM, first compound 0.0949 µM) was 70.8% and the viability, T/C (second compound 0.3 µM, first compound 0.3 µM) was 64.5%.
